Source: patent US20130217664A1, “NOVEL COMPOUNDS USEFUL FOR THE TREATMENT OF DEGENERATIVE AND INFLAMMATORY DISEASES” (priority 2012, published 2013)

What was measured:
Format in all cases: biochemical
human JAK1 = biological target: T1, human JAK1 (Homo sapiens, UniProt P23458); assay: JAK1 inhibition assay (polyGT substrate / Ulight-JAK1 peptide); settings: recombinant human JAK1 catalytic domain; polyGT or Ulight-JAK1 peptide assay
T1 construct: catalytic domain, amino acids 866-1154; catalog number PV4774; purchased Invitrogen PV4774
T1 sequence (P23458 866-1154): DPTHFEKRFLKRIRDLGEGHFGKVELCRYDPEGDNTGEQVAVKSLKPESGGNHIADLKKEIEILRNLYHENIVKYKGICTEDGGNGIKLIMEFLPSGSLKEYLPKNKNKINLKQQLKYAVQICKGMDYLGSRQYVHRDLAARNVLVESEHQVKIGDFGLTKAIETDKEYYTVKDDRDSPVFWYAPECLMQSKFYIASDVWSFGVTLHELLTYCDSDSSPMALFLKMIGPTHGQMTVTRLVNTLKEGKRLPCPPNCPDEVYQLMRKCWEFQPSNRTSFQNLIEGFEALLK
In short: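 Two formats. PolyGT radiometric: 45 min at 30 °C, stopped with phosphoric acid, counted as cpm. Ulight-JAK1 peptide: 60 min at room temperature, stopped with Eu-anti-phosphotyrosine/EDTA, read as RFU. Percent inhibition normalised to vehicle and 10 μM staurosporine.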

human JAK2 = biological target: T2, human JAK2 (Homo sapiens, UniProt O60674); assay: JAK2 inhibition assay (polyGT substrate / Ulight-JAK1 peptide); settings: recombinant human JAK2 catalytic domain; polyGT or Ulight-JAK1 peptide assay
T2 construct: catalytic domain (amino acids 808-1132; catalog number PV4210); GST; purchased Invitrogen PV4210
T2 sequence (O60674 808-1132): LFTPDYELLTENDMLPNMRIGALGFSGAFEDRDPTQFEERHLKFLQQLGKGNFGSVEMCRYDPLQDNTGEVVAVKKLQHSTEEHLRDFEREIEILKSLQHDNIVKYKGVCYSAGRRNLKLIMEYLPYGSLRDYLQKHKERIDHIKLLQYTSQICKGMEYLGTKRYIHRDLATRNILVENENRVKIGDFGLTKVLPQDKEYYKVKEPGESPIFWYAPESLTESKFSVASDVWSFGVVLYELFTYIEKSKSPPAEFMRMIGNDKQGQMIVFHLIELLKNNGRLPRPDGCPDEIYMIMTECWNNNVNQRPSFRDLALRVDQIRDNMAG
In short: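 Radiometric: 0.025 mU JAK2 with 2.5 μg polyGT, 1 μM ATP plus ^33P-ATP in MOPS pH 7.5 buffer, 1% DMSO, 90 min at 30° C.; filter counting. Alternative TR-FRET format with Ulight-JAK1 peptide, 60 min at room temperature, Eu-anti-phosphotyrosine detection.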

human TYK2 = biological target: T3, human TYK2 (Homo sapiens, UniProt P29597); assay: TYK2 inhibition assay; settings: recombinant human TYK2 catalytic domain, polyGT substrate
T3 construct: catalytic domain (amino acids 871-1187; catalog number 08-147); purchased Carna Biosciences 08-147
T3 sequence (P29597 871-1187): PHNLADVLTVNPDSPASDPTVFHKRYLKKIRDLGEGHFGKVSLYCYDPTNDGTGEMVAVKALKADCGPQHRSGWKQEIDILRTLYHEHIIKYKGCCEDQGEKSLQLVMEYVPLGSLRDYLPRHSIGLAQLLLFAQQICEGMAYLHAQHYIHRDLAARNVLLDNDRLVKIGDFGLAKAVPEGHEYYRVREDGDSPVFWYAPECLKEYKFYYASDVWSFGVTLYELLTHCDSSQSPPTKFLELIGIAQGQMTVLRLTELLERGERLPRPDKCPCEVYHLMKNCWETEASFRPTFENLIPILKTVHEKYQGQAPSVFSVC
In short: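 Radiometric kinase reaction run 90 min at 30 °C, stopped with phosphoric acid, washed and scintillation-counted.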

Row | Compound | IC50 (human JAK1) [nM] | IC50 (human JAK2) [nM] | IC50 (human TYK2) [nM]
1 | COC(=O)c1ccc(N(C)c2cc3c(cn2)ncn3C)c(C)c1 [Compound 27, Methyl 3-methyl-4-(methyl(1-methyl-1H-imidazo[4,5-c]pyridin-6-yl)amino)benzoate] | 101 to 500 | > 1000 | > 1000
2 | CNC(=O)c1ccc(N(C)c2cc3c(cn2)ncn3C)c(C)c1 [Compound 30, N,3-Dimethyl-4-(methyl(1-methyl-1H-imidazo[4,5-c]pyridin-6-yl)amino)-benzamide] | 101 to 500 | > 1000 | > 1000
3 | COc1ccc(COc2ccc(N(C)c3cc4c(cn3)ncn4C)c(C)c2)cc1 [Compound 33, N-(4-(4-Methoxybenzyloxy)-2-methylphenyl)-N,1-dimethyl-1H-imidazo[4,5-c]pyridin-6-amine] | 0.01 to 100 | > 1000 | > 1000
4 | CCc1ccccc1N(CC)c1cc2c(cn1)ncn2C [Compound 34, N-Ethyl-N-(2-ethylphenyl)-1-methyl-1H-imidazo[4,5-c]pyridin-6-amine] | 0.01 to 100 | 501 to 1000 | 0.01 to 100
5 | CCc1ccccc1N(CC1CC1)c1cc2c(cn1)ncn2C [Compound 35, N-(cyclopropylmethyl)-N-(2-ethylphenyl)-1-methyl-1H-imidazo[4,5-c]pyridin-6-amine] | 0.01 to 100 | > 1000 | 101 to 500
6 | Cc1cc(O)ccc1N(C)c1cc2c(cn1)ncn2C [Compound 38, 3-Methyl-4-(methyl(1-methyl-1H-imidazo[4,5-c]pyridin-6-yl)amino)phenol] | 0.01 to 100 | > 1000 | 101 to 500
7 | CN(c1cc2c(cn1)ncn2C)c1ccccc1OC(F)F [Compound 39, N-(2-(difluoromethoxy)phenyl)-N,1-dimethyl-1H-imidazo[4,5-c]pyridin-6-amine] | 0.01 to 100 | 501 to 1000 | 501 to 1000
8 | COc1ccc(COc2ccc(C)c(N(C)c3cc4c(cn3)ncn4C)c2)cc1 [Compound 43, N-(5-(4-methoxybenzyloxy)-2-methylphenyl)-N,1-dimethyl-1H-imidazo[4,5-c]pyridin-6-amine] | 101 to 500 | > 1000 | > 1000
9 | Cc1cc(OCC#N)ccc1N(C)c1cc2c(cn1)ncn2C [Compound 47, 2-(3-methyl-4-(methyl(1-methyl-1H-imidazo[4,5-c]pyridin-6-yl)amino)phenoxy)acetoni-trile] | 0.01 to 100 | 101 to 500 | 101 to 500

Now from value to compound:

Row | IC50 (human JAK1) [nM] | IC50 (human JAK2) [nM] | IC50 (human TYK2) [nM] | Compound
10 | 0.01 to 100 | 501 to 1000 | 101 to 500 | CN(c1ccc(O)cc1)c1cc2c(cn1)ncn2C [Compound 17, 4-(methyl(1-methyl-1H-imidazo[4,5-c]pyridin-6-yl)amino)phenol]
11 | 0.01 to 100 | 101 to 500 | 101 to 500 | CN(c1ccc(CC#N)cc1)c1cc2c(cn1)ncn2C [Compound 26, 2-(4-(Methyl(1-methyl-1H-imidazo[4,5-c]pyridin-6-yl)amino)phenyl)acetonitrile]
12 | 0.01 to 100 | 501 to 1000 | 101 to 500 | CCc1cc(F)ccc1N(C)c1cc2c(cn1)ncn2C [Compound 28, N-(2-Ethyl-4-fluorophenyl)-N,1-dimethyl-1H-imidazo[4,5-c]pyridin-6-amine]
13 | 0.01 to 100 | > 1000 | 501 to 1000 | Cc1cc(CO)ccc1N(C)c1cc2c(cn1)ncn2C [Compound 29, (3-Methyl-4-(methyl(1-methyl-1H-imidazo[4,5-c]pyridin-6-yl)amino)phenyl) MeOH]
14 | 0.01 to 100 | > 1000 | 501 to 1000 | Cc1cc(C#N)ccc1N(C)c1cc2c(cn1)ncn2C [Compound 31, 3-Methyl-4-(methyl(1-methyl-1H-imidazo[4,5-c]pyridin-6-yl)amino)benzonitrile]
15 | 0.01 to 100 | > 1000 | > 1000 | Cc1cc(C(N)=O)ccc1N(C)c1cc2c(cn1)ncn2C [Compound 32, 3-Methyl-4-(methyl(1-methyl-1H-imidazo[4,5-c]pyridin-6-yl)amino)benzamide]
